Results: patent US6558650B1, “Enhancement of cellular gallium uptake” (Oregon Health and Science University, priority 1998, dated 2003)

Experiments:
[1] = test system: TfR− and TfR+ cells (Chinese Hamster Ovary); test: Cellular uptake of Ga-67, text statements that do not separate TfR− and TfR+ cells; format: cell-based
Description: (§1) A pair of transfected Chinese Hamster Ovary cells lines were used to compare, in a controlled manner, the Tf-dependent and Tf-independent systems for the uptake of Ga-67.
(§2) The two cell lines are identical except that TfR-cells express no TfR, and TfR+ cells over-express the transfected human TfR constitutively. This means that expression of the TfR is independent of cell growth or iron content, which could alter the cells matabolically in many ways that may confound a well-controlled experimental determination of cause and effect. TfR− and TfR+ cells were grown in monolayer and maintained as previously described (37).
The tube was placed on its side on the surface of a cool, daylight color-balanced, fluorescent light box (Just Normlicht).
The temperature at the surface of the light box was 29° C. for the fluorescent light box, and 37° C. for the UV light box. The PDN was added to 10 ml of incubation solution (below) to achieve concentrations ranging from 0.25 μM to 100 μM. Each 10 ml sample of incubation solution contained an equal quantity of ethanol (approximately 100 µl per 10 ml), including the controls.
Following growth of cells in 25 cm^2 flasks to subconfluence, monolayers of cultured cells were first washed, and then pre-incubated for 2 hours at 37° C. with 5 ml serum-free Dulbecco's Modified Essential Medium (DMEM) to deplete the cells of Tf. The pre-incubation medium was then removed and replaced by 1.5 ml of the incubation solution containing 10 uCi/ml carrier-free Ga-67 citrate (Mallinckrodt) in Hank's Balanced Salt solution (HBSS), pre-warmed to 37° C. The concentration of Ga-67 in the incubation solution was approximately 0.25 nM. The HBSS, pH 7.2-7.4, contained 3.7 g/L NaHCO3, 1 mM CaCl2, and 1 mM magnesium salts. Cells were incubated in the PDN- and Ga-67-containing solutions in a CO2 incubator at 37° C. for intervals ranging from 10 seconds to 90 minutes. All experiments were conducted in the dark.
Following incubation of cells with Ga-67, the flasks were immediately placed on ice. The radioactive material was removed by aspiration with a Pasteur pipette attached to water suction. The monolayers were washed 3 times with 5 ml each ice cold HBSS. Cells were washed once with phosphate-buffered saline (PBS), pre-warmed to 37° C. The PBS was removed and the cellular monolayer overlaid with 1.5 ml 0.25% trypsin containing 1 mM EDTA. The trypsin was immediately removed and the cells were incubated briefly (1 minute) at 37° C. The cells in each flask were then dislodged by several gentle mechanical blows to the side of the flask and collected in 200 μl ice cold PBS.
By a modification of a method previously published for radiolabeling of protozoan parasites (38), the cells were then separated from unbound contaminating radioactivity. The 200 μl of cells in PBS were layered gently over 200 μl of an 8.5:1.5 ratio of dibutylpthalate:liquid paraffin oil in a 1.5 ml microfuge tube. With care not to agitate the mixture, the tubes were than centrifuged at 12,000 rpm for 2 minutes in a microfuge. The supernatant and the oil was then aspirated carefully from the top of the tube with a Pasteur pipette attached to water suction. The bottom of the microfuge tube, containing the cell pellet (typical pellet volume˜100 μl), was then clipped with a microfuge tube clipper into a counting vial containing 900 μl of a solution of 200 mM NaOH. 1% SDS. The cell pellet was dissolved in this solution. The content of radioactivity in the samples was determined by a gamma well counting (Packard) in comparison to standard dilutions of the original Ga-67 incubation solution.
Protein assays were performed on the solubilized cell samples by formation of a cuprous bicinchonicic acid complex using a spectrophotometric microtiter plate reader (Dynatech) (39). The method and reagents used are supplied in a kit (Pierce) and were performed according to the manufacturer's directions.

[2] = test system: nucleated rabbit erythrocytes; details: isolated nitroso-derivative compared with crude photo-degraded nifedipine (44); cited from earlier work
[3] = oral; cited from earlier work
[4] = test system: TfR− cells (transfected Chinese Hamster Ovary cells expressing no TfR); details: 0.5 h, 25 µM
Description: as §1, §2
(§3) The tube was placed on its side on the surface of a cool, daylight color-balanced, fluorescent light box (Just Normlicht). […]
(§4) The temperature at the surface of the light box was 29° C. for the fluorescent light box, and 37° C. for the UV light box. […] Each 10 ml sample of incubation solution contained an equal quantity of ethanol (approximately 100 µl per 10 ml), including the controls. […]
(§5) By a modification of a method previously published for radiolabeling of protozoan parasites (38), the cells were then separated from unbound contaminating radioactivity. […] The content of radioactivity in the samples was determined by a gamma well counting (Packard) in comparison to standard dilutions of the original Ga-67 incubation solution. […]

[5] = test system: TfR+ cells (transfected Chinese Hamster Ovary cells over-expressing human TfR); details: 0.5 h, 25 µM
Description: as §1, §2, §3, §4, §5

Row | Structure (SMILES) | effect on Ga-67 uptake ([1]; light-protected compound) | effect on Ga-67 uptake ([1]; photo-irradiated compound) | also measured
1 | COc1ccc(CCN(C)CCCC(C#N)(c2ccc(OC)c(OC)c2)C(C)C)cc1OC (centres unmarked) [verapamil] | None of the light-protected or photo-irradiated compounds had an effect | None of the light-protected or photo-irradiated compounds had an effect | 
2 | CC(=O)c1c(C)nc(C)c(C(C)=O)c1-c1ccccc1N=O [nitroso-derivative, 2,6-dimethyl-3,5-diacetyl-4-(2′-nitrosophenyl)-pyridine] |  |  | gallium uptake (inferred from conditions that correlate with presence of the nitroso-derivative) ([1]; not tested in isolation, inferred from Example 3 data): enhances gallium uptake; pharmacological action in enhancing the uptake of Fe^2+ [2]: same pharmacological action as “crude” photo-degraded nifedipine
3 | COC(=O)C1=C(C)NC(C)=C(C(=O)OC)C1c1ccccc1[N+](=O)[O-] [Nifedipine, dimethyl 1,4-dihydro-2,6-dimethyl-4-(2-nitrophenyl)-3,5-pyridinedicarboxylate] |  |  | time to peak plasma levels post ingestion [3]: approximately 30 minutes; fmoles Ga-67/mg Total Cellular Protein, TfR− cells [4]: .171 fmoles Ga-67/mg Total Cellular; fmoles Ga-67/mg Total Cellular Protein, TfR+ cells [5]: 0.296 fmoles Ga-67/mg Total Cellular
4 | COc1ccc([C@@H]2Sc3ccccc3N(CCN(C)C)C(=O)[C@@H]2OC(C)=O)cc1 [diltiazem] | None of the light-protected or photo-irradiated compounds had an effect | None of the light-protected or photo-irradiated compounds had an effect | 
5 | COC(=O)C1=C(C)NC(C)=C([N+](=O)[O-])C1c1ccccc1C(F)(F)F (centres unmarked) [BAY K 8644] | None of the light-protected or photo-irradiated compounds had an effect | None of the light-protected or photo-irradiated compounds had an effect | 
